Laboratory results from patent US20070082920A1, “NAD+-dependent DNA ligase inhibitors” (priority 2005, published 2007).

Assays:
[1] = Acute toxicity, Alamar blue cell viability, NIH 3T3; type: cell-based; details: mouse
Protocol: (§1) Acute toxicity was assessed against two mammalian cell lines, HepG2 (human hepatocyte) and NIH 3T3 (mouse fibroblast). Cell viability was measured by an in vitro assay using Alamar blue. The concentration of compound which inhibited 50% of the cell growth (LC50) was determined.

[2] = system: Staphylococcus aureus ATCC 29213; experiment: MIC, broth microdilution (CLSI), S. aureus; type: cell-based; details: lowest concentration inhibiting visual growth
Protocol: (§2) The compounds of Formulas 1-VIII were evaluated as inhibitors of NAD+-dependent DNA ligase inhibitors. Their antimicrobial activity was evaluated against bacteria using the broth microdilution method as described by Clinical Laboratory Standards Institute (formerly NCCLS). Activity was assessed against the following bacterial strains: Staphylococcus aureus ATCC 29213, Streptococcus pneumoniae ATCC 49619, Escherichia coli ATCC 25922, E. coli CGSC 5633 (ToIC mutant), Haemophilus influenzae ATCC 49766, Streptococcus pyogenes ATCC 19615, Moraxella catterhalis ATCC 25238, Enterococcus faecalis ATCC 29212. The lowest concentration of compound which inhibited visual growth of each bacterium, the minimum inhibitory concentration (MIC), was determined.

[3] = system: Moraxella catterhalis ATCC 25238; experiment: MIC, broth microdilution (CLSI), M. catarrhalis; type: cell-based
Protocol: as §2

[4] = system: Streptococcus pneumoniae ATCC 49619; experiment: MIC, broth microdilution (CLSI), S. pneumoniae; type: cell-based
Protocol: as §2

[5] = system: Haemophilus influenzae ATCC 49766; experiment: MIC, broth microdilution (CLSI), H. influenzae; type: cell-based; set-up: unit not given beside the values
Protocol: as §2

[6] = system: Streptococcus pyogenes ATCC 19615; experiment: MIC, broth microdilution (CLSI), S. pyogenes; type: cell-based
Protocol: as §2

[7] = system: Enterococcus faecalis ATCC 29212; experiment: MIC, broth microdilution (CLSI), E. faecalis; type: cell-based; set-up: unit not given here
Protocol: as §2

[8] = system: E. coli CGSC 5633 (ToIC mutant); experiment: MIC, broth microdilution (CLSI), E. coli CGSC 5633; type: cell-based, Escherichia coli; set-up: unit not given beside the values
Protocol: as §2

[9] = system: Escherichia coli ATCC 25922; experiment: MIC, broth microdilution (CLSI), E. coli ATCC 25922; type: cell-based; set-up: unit not given here
Protocol: as §2

[10] = Acute toxicity, Alamar blue cell viability, HepG2; type: cell-based; details: human
Protocol: as §1

[11] = NIH 3T3 cells, Alamar blue, 50% inhibition of cell growth, read-out: Acute Tox LC50 μM/ NIH-3T3
[12] = HepG2 cells, Alamar blue, 50% inhibition of cell growth, read-out: Acute Tox LC50 μM/ HepG2

Structure (SMILES)	CC50 [1] [µM]	MIC S. aureus ATCC 29213 [2]	MIC M. catarrhalis [3]	MIC S. pneumoniae [4]	MIC H. influenzae [5]	MIC S. pyogenes [6]	MIC E. faecalis [7]	MIC E. coli CGSC 5633 [8]	MIC E. coli ATCC 25922 [9]	CC50 [10] [µM]	CC50 [1, 11] [µM]	CC50 [10, 12] [µM]
Cc1cc(NCc2ccc(F)cc2)nc2nc(N)nc(N)c12 [III-a]	8.14	32	8	64	2	2	4	0.25	32	24	–	–
Cc1c(C2CCCC2)c(NCc2ccc(F)c(F)c2)nc2nc(N)nc(N)c12 [II-g]	2.67	4	1	4	16	4	4	2	>128	16.4	–	–
Cc1c(C(C)C)c(NCc2cc(F)cc(C(F)(F)F)c2)nc2nc(N)nc(N)c12 [II-f]	–	8	4	8	32	8	2	–	128	–	–	–
Cc1cc(NCc2cc(F)cc(C(F)(F)F)c2)nc2nc(N)nc(N)c12 [III-b, 2,4-diamino-5-methyl-7-[(3-fluoro-5-trifluoromethylbenzyl)amino]-pyrido[2,3-d]pyrimidine]	8.34	16	8	1	32	4	0.5	<0.125	16	20.9	–	–
Cc1cc(NCc2ccc(F)cc2C(F)(F)F)nc2nc(N)nc(N)c12 [III-j]	–	16	4	1	16	4	1	0.25	32	–	–	–
Cc1cc(NCc2ccc(Cl)c(C(F)(F)F)c2)nc2nc(N)nc(N)c12 [III-f]	8.32	8	2	1	16	2	1	<0.125	16	15.2	–	–
Cc1cc(N2CCCc3ccccc32)nc2nc(N)nc(N)c12 [V-a]	11.5	32	16	8	16	32	<0.125	<0.125	64	27.1	–	–
COc1cc(CN(C)c2nc3nc(N)nc(N)c3c3c2CCCC3)cc(OC)c1 [VII-e]	–	32	4	0.5	16	2	<0.1250	1	64	–	–	–
Nc1nc(N)c2c3c(c(NCc4cc(F)cc(F)c4)nc2n1)CCCC3 [VII-d]	–	32	16	8	32	8	8	–	64	–	–	–
Cc1cc(NCc2cc(F)cc(C(F)(F)F)c2)nc2nc([N+](=O)[O-])nc([N+](=O)[O-])c12 [VIII-b]	–	8	4	8	64	4	4	2	64	–	12.1	> 16.4
COc1cc(CN(C)c2nc3nc(N)nc(N)c3c(C)c2Cc2ccccc2)cc(OC)c1 [II-a, 2,4-diamino-5-methyl-6-benzyl-7-[(3,5-dimethoxybenzyl)methylamino]-pyrido[2,3-d]pyrimidine]	5.57	4	4	0.125	>128	4	<0.125	<0.125	>128	12.8	–	–
Cc1cc(NCc2ccc(C(F)(F)F)cc2F)nc2nc(N)nc(N)c12 [III-h]	–	16	4	4	16	4	4	0.5	16	–	–	–
COc1ccc(CN(C)c2cc(C)c3c(N)nc(N)nc3n2)cc1OC [IV-b]	13.2	64	8	2	16	–	–	0.125	64	> 28.2	–	–
Cc1cc(NCc2cc(F)c(F)c(F)c2)nc2nc([N+](=O)[O-])nc([N+](=O)[O-])c12 [VIII-a]	–	8	2	16	32	8	16	4	64	–	22.2	> 30.8
Cc1cc(NCc2ccc3c(c2)OCO3)nc2nc(N)nc(N)c12 [III-m]	–	64	16	2	8	8	2	0.5	64	–	–	–
Cc1cc(NCc2cccc(C(F)(F)F)c2F)nc2nc(N)nc(N)c12 [III-g]	–	16	4	2	32	4	2	0.5	16	–	–	–
Cc1cc(NCc2cc(C(F)(F)F)ccc2F)nc2nc(N)nc(N)c12 [III-k]	–	16	16	2	32	16	0.5	–	32	–	–	–
Nc1nc(N)c2c3c(c(N4Cc5ccccc5C4)nc2n1)CCCC3 [VII-c]	–	16	4	8	>128	16	1	–	>128	–	–	–
